Test results taken from article PMC9606955, “In Vitro Activity of Essential Oils Distilled from Colombian Plants against Candida auris and Other Candida Species with Different Antifungal Susceptibility Profiles” (Molecules, 2022).
Values after ≈ are worked out from the molar mass of the structure shown. Where two headings read alike, the source gives them in different places. Blank lines part the entries; values can stand above or below the compound they belong to.

Key:
[1] = tested on: C. metapsilosis MUM 15.12; assay: MIC, CLSI M27 broth microdilution; assay type: cell-based, Candida metapsilosis; conditions: Lodderomyces metapsilosis, read-out: GM MIC
Excerpt: (§1) The fungal strains used in this study were C. albicans ATCC 10231, C. albicans ATCC 64550, C. parapsilosis ATCC 22019, C. tropicalis ATCC 750, C. tropicalis ATCC 200956 (resistant to azoles and AMB), C. glabrata LMDM 34 (resistant to echinocandins), C. metapsilosis MUM 15.12, C. orthopsilosis MUM 17.13, C. lusitaniae MUM 17.08, C. krusei ATCC 6258 (Issatchenkia orientalis ATCC 6258), and C. auris CDC B11903. Additionally, nine clinical isolates were included: C. parapsilosis Synlab 406 (FLC-resistant) and eight C. auris isolates identified by MALDI-TOF MS (Bruker Daltonics, Bremen, Germany) according to Zhao et al.. These yeasts were cultured on Sabouraud Dextrose Agar (SDA; Sigma-Aldrich, St. Louis, MO, USA) for 24 h at 35 °C.
(§2) Antifungal susceptibility testing was performed according to Clinical and Laboratory Standards Institute M27, 4th Edition (CLSI standard M27, 4th Edition). Some modifications were applied for evaluation of the antifungal activity of EOs and terpenes. Initially, a screening was carried out to determine the antifungal activity of the EOs and of commercial terpenes. Stock concentrations of EOs and terpenes were prepared at 512 µg/mL and an inoculum of 2.5 × 10^3 CFU/mL of each yeast was prepared in RPMI 1640-MOPS (Sigma- Aldrich St. Louis, MO, USA). Thereafter, 100 µL of each stock solution of EOs or terpenes was dispensed in 96-well microdilution plates (Corning®, Costar®, NY, USA) and 100 µL of each yeast inoculum was added. […] Microdilution plates were incubated at 35 °C and, after 24 h, the presence or absence of growth was visually checked using a manual mirror viewer and then compared with the amount of growth in the control (no EO or terpene). Compounds able to inhibit yeast growth were tested to determine the minimal inhibitory concentration (MIC) as follows: 100 µL of 10 two-fold dilutions of the EOs or commercial terpenes was dispensed in 96-well microplates and the yeast inoculum was added. Final concentrations of the EOs or terpenes ranged from 0.5 µg/mL to 256 µg/mL. Microdilution plates were incubated at 35 °C for 24 h. MICs were visually determined at the lowest concentration that produced visual inhibition compared to the growth control. The assays were performed at least three times in duplicate on different days. The results were expressed as geometric means (GM) and ranges. As an antifungal susceptibility testing control, the activity of ITC and AMB against the reference strains C. krusei ATCC 6258 and C. parapsilosis ATCC 22019 was evaluated in all experiments following the CLSI standard M27, 4th Edition. It was mandatory that the MIC values remained in the accepted range.

[2] = tested on: Candida spp.; assay: Screening of antifungal activity at 256 µg/mL against twenty strains; assay type: cell-based; conditions: screening at 256 µg/mL
Excerpt: as §1
Antifungal susceptibility testing was performed according to Clinical and Laboratory Standards Institute M27, 4th Edition (CLSI standard M27, 4th Edition). Some modifications were applied for evaluation of the antifungal activity of EOs and terpenes. Initially, a screening was carried out to determine the antifungal activity of the EOs and of commercial terpenes. Stock concentrations of EOs and terpenes were prepared at 512 µg/mL and an inoculum of 2.5 × 10^3 CFU/mL of each yeast was prepared in RPMI 1640-MOPS (Sigma- Aldrich St. Louis, MO, USA). Thereafter, 100 µL of each stock solution of EOs or terpenes was dispensed in 96-well microdilution plates (Corning®, Costar®, NY, USA) and 100 µL of each yeast inoculum was added. […] MICs were visually determined at the lowest concentration that produced visual inhibition compared to the growth control. […] The results were expressed as geometric means (GM) and ranges. As an antifungal susceptibility testing control, the activity of ITC and AMB against the reference strains C. krusei ATCC 6258 and C. parapsilosis ATCC 22019 was evaluated in all experiments following the CLSI standard M27, 4th Edition. […]

[3] = Cytotoxicity, MTT assay; conditions: human, HaCaT keratinocyte cells
Procedure: Cells were cultured in Dulbecco’s Modified Eagle Medium (DMEM; Sigma-Aldrich, St. Louis, MO, USA) supplemented with 10% fetal bovine serum (Invitrogen, Carlsbad, CA, USA), 1% penicillin, streptomycin, and neomycin (Invitrogen, Carlsbad, CA, USA), and 1% L-glutamine (Invitrogen, Carlsbad, CA, USA) at 37 °C in a humidified atmosphere of 5% CO2. […] Afterwards, the culture medium was removed and 3-(4.5-dimethylthiazol-2-yl)-2.5-diphenyltetrazolium bromide (MTT) (Sigma-Aldrich, St. Louis, MO, USA) at 5 mg/mL was added at 37 °C for 2 h. Subsequently, DMSO was added to dissolve the formazan crystals. Finally, the absorbances were measured with a Multiskan SkyHigh Microplate Spectrophotometer (Thermo Fisher Scientific, Waltham, MA, USA) at λ = 570 nm. The CC50 values were obtained by linear regression analysis with concentration–response curves, which were performed with absorbance data using GraphPad Prism software (Prism 9.3.0, San Diego, CA, USA). The assays were conducted at two separate times in triplicate. The data were expressed as means.

[4] = tested on: C. tropicalis ATCC 200956; assay: MIC, CLSI M27 broth microdilution; assay type: cell-based, Candida tropicalis; conditions: for MIC: Candida tropicalis, read-out: GM MIC
Excerpt: as §1, §2

[5] = tested on: C. auris Ca 17; assay: MIC, CLSI M27 broth microdilution; assay type: cell-based, Candida auris; conditions: Candidozyma auris, read-out: GM MIC
Excerpt: as §1, §2

[6] = tested on: C. auris Ca 1; assay: MIC, CLSI M27 broth microdilution; assay type: cell-based, Candida auris
Excerpt: as §1, §2

[7] = tested on: C. auris Ca 32; assay: MIC, CLSI M27 broth microdilution; assay type: cell-based, Candida auris; conditions: Candidozyma auris, read-out: GM MIC
Excerpt: as §1, §2

[8] = tested on: C. auris Ca 45; assay: MIC, CLSI M27 broth microdilution; assay type: cell-based, Candida auris; conditions: for MIC: Candidozyma auris, read-out: GM MIC
Excerpt: as §1, §2

[9] = tested on: C. auris Ca 46; assay: MIC, CLSI M27 broth microdilution; assay type: cell-based, Candida auris; conditions: Candidozyma auris, read-out: GM MIC
Excerpt: as §1, §2

[10] = tested on: C. auris Ca 9; assay: MIC, CLSI M27 broth microdilution; assay type: cell-based, Candida auris; conditions: Candidozyma auris, read-out: GM MIC
Excerpt: as §1, §2

[11] = tested on: C. auris Ca 13; assay: MIC, CLSI M27 broth microdilution; assay type: cell-based, Candida auris; conditions: for MIC: Candidozyma auris, read-out: GM MIC
Excerpt: as §1, §2

[12] = tested on: C. auris Ca 41; assay: MIC, CLSI M27 broth microdilution; assay type: cell-based, Candida auris; conditions: for MIC: Candidozyma auris, read-out: GM MIC
Excerpt: as §1, §2

[13] = tested on: C. auris CDC B11903; assay: MIC, CLSI M27 broth microdilution; assay type: cell-based, Candida auris; conditions: for MIC: Candidozyma auris, read-out: GM MIC
Excerpt: as §1, §2

[14] = tested on: C. lusitaniae MUM 17.08; assay: MIC, CLSI M27 broth microdilution; assay type: cell-based, Candida lusitaniae; conditions: for MIC: Clavispora lusitaniae, read-out: GM MIC
Excerpt: as §1, §2

[15] = tested on: C. parapsilosis Synlab 406; assay: MIC, CLSI M27 broth microdilution; assay type: cell-based, Candida parapsilosis; conditions: for MIC: Lodderomyces parapsilosis, read-out: GM MIC
Excerpt: as §1, §2

[16] = tested on: C. auris; set-up: method as in PMID 31980703; conditions: cited from earlier work
[17] = tested on: C. orthopsilosis MUM 17.13; assay: MIC, CLSI M27 broth microdilution; assay type: cell-based, Candida orthopsilosis; conditions: Lodderomyces orthopsilosis, read-out: GM MIC
Excerpt: as §1, §2

[18] = tested on: C. krusei ATCC 6258; assay: MIC, CLSI M27 broth microdilution; assay type: cell-based, Candida krusei; conditions: for MIC: Pichia kudriavzevii, read-out: GM MIC
Excerpt: as §1, §2

SMILES: Cc1ccc(C(C)C)cc1O [Carvacrol, carvacrol]
MIC ([1]; MUM15.12, 24 h): 128 µg/mL (≈ 852 µM)
antifungal activity in screening [2]: active against all tested Candida spp.
CC50 at 24 h [3]: 411 µg/mL (≈ 2730 µM)
MIC ([4]; ATCC200956, 24 h): 128 µg/mL (≈ 852 µM)
MIC ([5]; CA17, 24 h): 128 µg/mL (≈ 852 µM)
Range MIC ([6]; C. auris Ca 1, EOs and terpenes): 128 to 256 µg/mL
MIC ([6]; Candidozyma auris, CA1, 24 h, read-out: GM MIC): 181 µg/mL (≈ 1200 µM)
MIC ([7]; CA32, 24 h): 64 µg/mL (≈ 426 µM)
Range MIC ([8]; C. auris Ca 45, EOs and terpenes): 64 to 128 µg/mL
MIC ([8]; CA45, 24 h): 90.5 µg/mL (≈ 602 µM)
MIC ([9]; CA46, 24 h): 64 µg/mL (≈ 426 µM)
MIC ([10]; CA9, 24 h): 256 µg/mL (≈ 1700 µM)
Range MIC ([11]; C. auris Ca 13, EOs and terpenes): 128 to 256 µg/mL
MIC ([11]; CA13, 24 h): 181 µg/mL (≈ 1200 µM)
Range MIC ([12]; C. auris Ca 41, EOs and terpenes): 64 to 128 µg/mL
MIC ([12]; CA41, 24 h): 90.5 µg/mL (≈ 602 µM)
Range MIC ([13]; C. auris CDC B11903, EOs and terpenes): 64 to 128 µg/mL
MIC ([13]; CDCB11903, 24 h): 90.5 µg/mL (≈ 602 µM)
Range MIC ([14]; C. lusitaniae MUM 17.08, EOs and terpenes): 128 to 256 µg/mL
MIC ([14]; MUM17.08, 24 h): 181 µg/mL (≈ 1200 µM)
Range MIC ([15]; C. parapsilosis Synlab 406, EOs and terpenes): 32 to 64 µg/mL
MIC ([15]; SYNLAB406, 24 h): 45.3 µg/mL (≈ 302 µM)
MIC Range [16]: 63 to 250 µg/mL
MIC ([17]; MUM17.13, 24 h): 128 µg/mL (≈ 852 µM)
MIC ([18]; ATCC6258, 24 h): 256 µg/mL (≈ 1700 µM)

MIC ([1]; MUM15.12, C. metapsilosis MUM 17.13 (Table 3), EOs and terpenes, 24 h, top concentration 256 µg/mL): 256 µg/mL (≈ 1910 µM)
Range MIC ([4]; C. tropicalis ATCC 200956, EOs and terpenes): 128 to 256 µg/mL
MIC ([4]; ATCC200956, C. tropicalis ATCC 200956, EOs and terpenes, 24 h, top concentration 256 µg/mL): 181 µg/mL (≈ 1350 µM)
MIC ([5]; CA17, C. auris Ca 17, EOs and terpenes, 24 h, top concentration 256 µg/mL): 256 µg/mL (≈ 1910 µM)
MIC ([7]; CA32, C. auris Ca 32, EOs and terpenes, 24 h, top concentration 256 µg/mL): 128 µg/mL (≈ 954 µM)
MIC ([8]; CA45, C. auris Ca 45, EOs and terpenes, 24 h, top concentration 256 µg/mL): 256 µg/mL (≈ 1910 µM)
MIC ([9]; CA46, C. auris Ca 46, EOs and terpenes, 24 h, top concentration 256 µg/mL): 256 µg/mL (≈ 1910 µM)
MIC ([10]; CA9, C. auris Ca 9, EOs and terpenes, 24 h, top concentration 256 µg/mL): 256 µg/mL (≈ 1910 µM)
MIC ([11]; CA13, C. auris Ca 13, EOs and terpenes, 24 h, top concentration 256 µg/mL): 256 µg/mL (≈ 1910 µM)
MIC ([12]; CA41, C. auris Ca 41, EOs and terpenes, 24 h, top concentration 256 µg/mL): 256 µg/mL (≈ 1910 µM)
MIC ([13]; CDCB11903, C. auris CDC B11903, EOs and terpenes, 24 h, top concentration 256 µg/mL): 256 µg/mL (≈ 1910 µM)
MIC ([14]; MUM17.08, C. lusitaniae MUM 17.08, EOs and terpenes, 24 h, top concentration 256 µg/mL): 256 µg/mL (≈ 1910 µM)
MIC ([15]; SYNLAB406, C. parapsilosis Synlab 406, EOs and terpenes, 24 h, top concentration 256 µg/mL): 256 µg/mL (≈ 1910 µM)
MIC ([17]; MUM17.13, C. orthopsilosis MUM 15.12 (Table 3), EOs and terpenes, 24 h, top concentration 256 µg/mL): 256 µg/mL (≈ 1910 µM)
Range MIC ([18]; C. krusei ATCC 6258, EOs and terpenes): 128 to 256 µg/mL
MIC ([18]; ATCC6258, C. krusei ATCC 6258, EOs and terpenes, 24 h, top concentration 256 µg/mL): 181 µg/mL (≈ 1350 µM)
SMILES: Cc1ccc(C(C)C)cc1 [p-Cymene, p-cymene]
CC50 at 24 h [3]: 831 µg/mL (≈ 6190 µM)
